Laboratory results from patent publication US20230201192A1, “METHODS AND MATERIALS FOR ASSESSING AND TREATING CANCER” (Mayo Foundation for Medical Education and Research, priority 2020, published 2023).
pIC50: −log10 of the molar value.

Tests used:
[1] = Cell proliferation / viability assay (CyQuant or Coulter count), SSI-4 dose response; assay type: cell-based; conditions: 72 h; responsive HCC, CCA, ccRCC and MM cell lines; dose response 0.01-10,000 nM, 3 day exposure
Protocol: (§1) Cells were seeded at 5,000 cells/well in clear-bottom 96-well plates in triplicate. Drug treatment was applied at 1:1000 in reduced serum conditions (3%). After 72 hours, cells were washed with PBS, and stored at −80° C. prior to analysis using CyQuant® Proliferation Analysis Kit (Invitrogen) per manufacturers' protocol for relative fluorescence units. Alternatively, cells were plated 2×10^5/ well in 12-well plates (Genesee Scientific) in triplicate prior to drug treatment. After 120-hour treatment, cell number was established using a Coulter Particle Counter (Beckman). Oleic acid-albumin (Sigma Aldrich) was added to media at 5 μM, and was applied adjuvant to drug treatment. Drug stocks were prepared in DMSO (Sigma) at 1000×. IC50 dosing per cell line was calculated as described elsewhere (von Roemeling et al., Oncotarget, 9:3-20 (2018)).
(§2) SCD1 expression was examined in cell lines. Cells were treated with 1 μM SSI-4 for 3 days and a viability assay was used to identify SSI-4 sensitive and insensitive cell lines. Certain cell lines were also treated with varied doses (0.01-10,000 nM) of SSI-4 for 3 days. Not all cells that express SCD1 are sensitive to a SCD1 inhibitor (FIG. 1 and FIG. 2).

[2] = system: hepatocellular carcinoma (HCC), cholangiocarcinoma (CCA), clear cell renal cell carcinoma (ccRCC) and melanoma (MM) cell lines; experiment: as above; assay type: cell-based; conditions: responsive cell lines; 1 μM SSI-4 + 500 ug/ml BSA-OA, three days
Protocol: as §1, §2

[3] = system: SSI-4 sensitive HCC cells; experiment: Soft agar colony formation; assay type: cell-based; conditions: 1 micromolar SSI-4
Protocol: Soft agar cultures were prepared by diluting 2× growth medium 1:1 in 1.5% SeaplaqueGTG agarose (Lonza), with 500 cells/plate in 60-mm culture dishes (Genesee Scientific). Colonies were stained with Giemsa (LabChem Inc.) and counted after 3 weeks.
In FIG. 3A, cells representative of HCC (top row), RCC (middle row) and MM (bottom row) are shown. In FIG. 3B, sensitive HCC cells are treated with 1 micromolar SSI-4 showing inhibition of colony formation (i.e. growth). In FIG. 3C, colonies are quantitated comparing control to SSI-4 treated cells. […] Each treatment group was repeated in triplicate. Colony number is the mean+/−standard deviation (S.D.). Thus, soft agar assay can independently predict response to SCD1 inhibitor but requires fresh live tumor tissue and laboratories such as the Copland laboratory that can access tissues, process tissues and perform the assays.

[4] = system: Unsaturated fatty acids (UFAs); experiment: Unsaturated fatty acids measured in media of cells; assay type: cell-based; conditions: SSI-4 sensitive cells, 1 μM SSI-4
[5] = system: endoplasmic reticulum (ER) stress induced proteins; experiment: mRNA expression of ER stress induced proteins by qPCR; assay type: cell-based; conditions: sensitive cells, 1 μM SSI-4 for 48 hours, fold change to untreated cells
[6] = system: BIP, cleaved PARP, cleaved caspase 3, c-Myc, cyclin D1, survivin; experiment: Western blot analysis of ER stress, apoptosis and c-Myc signaling; assay type: cell-based
Protocol: HCC, RCC, CCA, and MM cell lines (2000 cells/well) were incubated with DMSO control (1:1000), 500 ug/ml bovine serum albumin-oleic acid (BSA-OA) and/or 1 μM SSI-4 for three days and determined for cell viability (FIG. 4A). Nonresponsive cell lines are closed triangle and responsive are open triangles. […] Specificity for blockade of SCD1 is shown by rescue with the enzyme end product, oleic acid (OA).
Western blot analysis: Cell protein extracts were prepared using RIPA lysis buffer containing 50 mmol/L Tris, 5 mmol/L EDTA, 150 mmol/L NaCl, 0.1% SDS, 0.5% deoxycholate, 1% NP40, protease inhibitor cocktail, and phosphatase inhibitor. Tissue protein extracts were prepared from frozen samples using 1% SDS in 50 mmol/L pH 8.0 Tris buffer containing protease inhibitor cocktail and phosphatase inhibitor with brief sonication on ice. Electrophoresis, transfer, blocking, and antibody preparations were performed. The following primary antibodies were included: SCD1, c-Myc, pSrc Y418, Src, b-actin, PARP, cleaved caspase 3, survivin, cyclin D1. Secondary species-specific horseradish peroxidase-labeled antibodies were applied, and Supersignal Chemiluminescent Kit was used to perform detection.
In FIG. 6, c-Myc protein expression correlates with SCD1 sensitive cell lines. SCD1 protein is expressed in most cancer cells (HCC and ccRCC) while c-Myc protein expression appears to be expressed in SSI-4 sensitive cells.

[7] = system: c-Myc silenced SSI-4 responsive cells / c-Myc overexpressing nonresponsive cells; experiment: Cell viability after c-Myc silencing (shRNA) or c-Myc overexpression; assay type: cell-based
Protocol: c-Myc gene silencing (shRNA) and c-Myc over-expression: Lentivirus shRNA pLKO.1 constructs were used to make self-inactivating shRNA lentiviruses for human c-Myc and a nontarget random scrambled sequence control. Transfection reagents Lipofectamine 2000 and ViraPower were used to generate lentiviruses using HEK293FT viral progenitor cells. Cells were incubated with lentivirus plus […] polybrene for 24 hours before clonal selection with puromycin.
In FIG. 8, overexpression of c-Myc in nonresponsive SSI-4 cells convert cells to SSI-4 sensitive (growth inhibited) cells. c-Myc mRNA expression is ˜2-fold elevated in cells infected with a c-Myc expression plasmid (FIG. 8A).

[8] = system: PDX tumor models for RCC, HCC, melanoma and CCA; experiment: PDTX tumor models in Nod Scid gamma mice; assay type: in vivo, NSG mice; conditions: oral, 180 parts per million in chow=10 mg/kg daily; treatment from ~75 mm^3; models predicted responsive by IHC
Protocol: Animal models and drug testing: PDTX tumors (5×5×5-mm) were implanted into Nod Scid gamma mice with treatment (vehicle control or oral SSI-4) begun when tumors were approximately ˜75-100 mm^3. Tumor volume, food consumption and body weight were monitored twice weekly. Tumor tissue was collected and processes for IHC.
In FIG. 10, PDTX tumor models for HCC, ccRCC, CCA, and melanoma respond to SSI-4 or not correlate with predictions shown in FIG. 10. PDTX tumors were grown in the right flank of Nod Scid Gamma (NSG) mice with treatment beginning when tumors reach ˜75 mm^3 with the start of SSI-4 oral treatment. Tumor tissues were formalin fixed and paraffin block slides were stained for SCD1, c-Myc, LDHA, p-Src by standard IHC protocols for protein expression. PDTX models tested include RCC, HCC, melanoma, and CCA. * indicates statistical difference of SSI-4 from same day treatment control (P<0.05). Number in red predicts no response to SSI-4 (SCD1 inhibitor). […] Cells resistant to SSI-4 may have low or no cMyc and no or low LDHA with elevated p-Src. Cell with elevated cMyc and LDHA and low p-Src are responsive to SSI-4 or SCD1 inhibition.

CNC(=O)c1ccnc(NC(=O)N2CCC(Oc3ccccc3Cl)CC2)c1 [SSI-4, 2-{[4-(2-Chlorophenoxy)piperidine-1-carbonyl]amino}-N-methylpyridine-4-carboxamide]
pIC50 [1]: 7.40 to 9.00 | rescue of SSI-4 inhibition of cell proliferation by oleic acid (BSA-OA) [2]: complete rescue | colony formation on soft agar [3]: blocked colony formation | unsaturated fatty acids (UFAs) [4]: suppressed UFAs to levels equal to non-responsive cells | mRNA expression for ER stress induced proteins [5]: became elevated | c-Myc and c-Myc regulated genes (cyclin D1 and survivin) protein expression ([6]; 1 μM SSI-4, restored by oleic acid BSA): down-regulated | ER stress (BIP protein, Western) ([6]; HCC cell lines): upregulation of BIP protein | apoptosis (cleaved PARP and cleaved caspase 3, Western) ([6]; HCC cell lines): Apoptotic cell death is induced | cMyc protein (Western) ([6]; HCC cell lines, rescue by OA): down-regulates cMyc protein | sensitivity of cells silenced for c-Myc to SSI-4 treatment ([7]; SSI-4 responsive cells with c-Myc shRNA): become insensitive | inhibition at 1 µM ([7]; c-Myc expressing (previously nonresponsive) cells, 1 uM SSI-4, read-out: enhanced growth inhibition): 33 to 45% | tumor response (tumor volume) [8]: respond
